Drawing on patent US9845319B2, “Amide substituted thiazoles as modulators of RORyt” (Janssen Pharmaceutica NV, priority 2014, dated 2017), this text covers Kd, IC50 and inhibition for 13 molecules.

Experiment [1] deals with T1, human RORγt ligand binding domain (RORγt LBD) (Homo sapiens, UniProt P51449).
T1 construct: His-tag (N); TurboTEV protease cleavage site (ENLYFQG) (N); made in house; host or cells: E. coli (pHIS1, a modified pET expression vector)
T1 sequence (P51449 with tags, fused parts or gaps): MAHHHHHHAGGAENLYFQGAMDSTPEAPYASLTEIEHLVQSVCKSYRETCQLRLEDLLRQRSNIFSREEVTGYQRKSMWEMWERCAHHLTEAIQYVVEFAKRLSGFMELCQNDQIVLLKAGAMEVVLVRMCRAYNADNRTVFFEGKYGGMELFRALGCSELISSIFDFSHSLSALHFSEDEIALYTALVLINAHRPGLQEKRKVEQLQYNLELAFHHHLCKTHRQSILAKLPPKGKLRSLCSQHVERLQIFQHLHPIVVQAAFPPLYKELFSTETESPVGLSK
The experiment can be described thus: RORγt ThermoFluor assay. Conditions: estimated from thermal shift concentration response. Put shortly:
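Thermal shift of RORγt LBD (0.065 mg/mL) with 60 μM 1,8-ANS in 100 mM Hepes pH 7.0, NaCl, GSH, 0.002% Tween-20, heated at 1° C/min. ANS fluorescence tracked versus temperature; ΔTm relative to DMSO wells. Compounds serially diluted 1:2 from 10 mM DMSO stock.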

The target in another experiment is T2, full-length human RORγt (Homo sapiens, UniProt P51449).
T2 construct: expressed in transfected cells; host or cells: HEK293T, transiently transfected with pCMV-BD-ROR
T2 sequence (P51449 1-497 isoform P51449-2): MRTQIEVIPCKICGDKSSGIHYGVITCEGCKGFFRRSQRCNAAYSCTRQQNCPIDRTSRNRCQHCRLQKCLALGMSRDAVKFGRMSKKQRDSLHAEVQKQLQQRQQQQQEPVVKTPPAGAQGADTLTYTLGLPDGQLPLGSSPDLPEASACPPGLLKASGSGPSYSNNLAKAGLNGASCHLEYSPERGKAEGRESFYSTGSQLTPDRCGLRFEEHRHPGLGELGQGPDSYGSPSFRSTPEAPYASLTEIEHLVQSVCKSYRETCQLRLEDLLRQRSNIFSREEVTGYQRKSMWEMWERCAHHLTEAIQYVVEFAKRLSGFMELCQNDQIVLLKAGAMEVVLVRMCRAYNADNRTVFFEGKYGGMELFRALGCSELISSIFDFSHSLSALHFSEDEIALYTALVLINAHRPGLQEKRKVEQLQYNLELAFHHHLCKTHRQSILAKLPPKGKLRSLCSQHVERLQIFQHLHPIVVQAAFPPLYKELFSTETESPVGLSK
The experiment can be described thus: RORγt (full-length human) Reporter Assay, Conditions A. Conditions: for IC50: HEK293T cells, GAL4-DBD-RORγt, luciferase, read-out: RORγt (FL) Reporter Assay A, IC50; for inhibition at 2 µM: read-out: RORγt (FL) Reporter Assay A, % inhibition (* at 2 μM), 2 μM compound concentration (footnote *); for inhibition at 6 µM: read-out: RORγt (FL) Reporter Assay A, % inhibition @ 6 μM, 6 μM compound. The format is cell-based. Put shortly: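 Dual-luciferase readout after overnight (16 to 20 hours) treatment: firefly values scaled between DMSO-only and saturating reference-compound controls, then corrected by Renilla. Percent inhibition calculated against DMSO control, with IC50 derived from concentration-response plots.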
For orientation: In a reporter assay the amount or activity of a reporter protein is the signal.

A value given as a limit tells only on which side of the number the result lay.

Broadly, the Kd is the equilibrium constant for the complex coming apart. For orientation: IC50 means the concentration that gives 50% inhibition. In general, inhibition refers to the drop in the measured response relative to a control, in per cent. Take `CCN(CC)C(=O)c1nc(-c2nnc(C(C)(C)O)[nH]2)sc1-c1ccc(C(O)(C(F)(F)F)C(F)(F)F)c(Cl)c1Cl` [Example 9, 5-(2,3-Dichloro-4-(1,1,1,3,3,3-hexafluoro-2-hydroxypropan-2-yl)phenyl)-N,N-diethyl-2-(5-(2-hydroxypropan-2-yl)-4H-1,2,4-triazol-3-yl)thiazole-4-carboxamide]: the Kd in experiment [1] was 32 nM. On full-length human RORγt, the IC50 is 120 nM and the inhibition at 2 µM was 99%.

As to `CCN(CC)C(=O)c1nc(-c2nncn2CC(C)(C)O)sc1-c1ccc(C(O)(C(F)(F)F)C(F)(F)F)c(Cl)c1Cl` [Example 9/1, 5-(2,3-Dichloro-4-(1,1,1,3,3,3-hexafluoro-2-hydroxypropan-2-yl)phenyl)-N,N-diethyl-2-(4-(2-hydroxy-2-methylpropyl)-4H-1,2,4-triazol-3-yl)thiazole-4-carboxamide], the Kd in experiment [1] was 27 nM. In addition, at full-length human RORγt, the IC50 came out at 67 nM and the inhibition at 2 µM is 99%.

In the case of `C[C@H](NS(=O)(=O)c1ccc(-c2sc(-c3nnc(C(C)(C)O)[nH]3)nc2C(=O)N2CC(F)(F)C[C@@H]2C)c(Cl)c1Cl)C(F)(F)F` [Example 9/2, 2,3-Dichloro-4-(4-((S)-4,4-difluoro-2-methylpyrrolidine-1-carbonyl)-2-(5-(2-hydroxypropan-2-yl)-4H-1,2,4-triazol-3-yl)thiazol-5-yl)-N—((S)-1,1,1-trifluoropropan-2-yl)benzenesulfonamide], the dissociation constant Kd in experiment [1] was 0.71 nM. Besides, at full-length human RORγt, the IC50 came to 28 nM and the inhibition at 2 µM came to 104%.

For the molecule `C[C@H](NS(=O)(=O)c1ccc(-c2sc(-c3nnc(C(C)(C)O)[nH]3)nc2C(=O)N2CCC(F)(F)CC2)c(Cl)c1Cl)C(F)(F)F` [Example 9/3, (S)-2,3-Dichloro-4-(4-(4,4-difluoropiperidine-1-carbonyl)-2-(5-(2-hydroxypropan-2-yl)-4H-1,2,4-triazol-3-yl)thiazol-5-yl)-N-(1,1,1-trifluoropropan-2-yl)benzenesulfonamide], in experiment [1], the dissociation constant (Kd) was 1.2 nM. At full-length human RORγt, the 50% inhibitory concentration (IC50) turned out to be 61 nM and the inhibition at 2 µM amounted to 104%.

Consider `CC[C@H](NS(=O)(=O)c1ccc(-c2sc(-c3noc(CC(C)(C)C(=O)O)n3)nc2C(=O)N2CCC(F)(F)CC2)c(C(F)F)c1Cl)C(F)(F)F` [Example 10/1, (S)-3-(3-(5-(3-Chloro-2-(difluoromethyl)-4-(N-(1,1,1-trifluorobutan-2-yl)sulfamoyl)phenyl)-4-(4,4-difluoropiperidine-1-carbonyl)thiazol-2-yl)-1,2,4-oxadiazol-5-yl)-2,2-dimethylpropanoic acid], for which, in experiment [1], the dissociation constant Kd is 0.0014 nM. Further, on full-length human RORγt, the IC50 amounted to 66 nM and the inhibition at 6 µM amounted to 104%.

With `CC[C@H](NS(=O)(=O)c1ccc(-c2sc(-c3noc(CC(C)(C)C(=O)O)n3)nc2C(=O)N2CC(F)(F)C[C@@H]2C)c(C(F)F)c1Cl)C(F)(F)F` [Example 10/3, 3-(3-(5-(3-Chloro-2-(difluoromethyl)-4-(N—((S)-1,1,1-trifluorobutan-2-yl)sulfamoyl)phenyl)-4-((S)-4,4-difluoro-2-methylpyrrolidine-1-carbonyl)thiazol-2-yl)-1,2,4-oxadiazol-5-yl)-2,2-dimethylpropanoic acid], the Kd in experiment [1] is 0.0036 nM. On full-length human RORγt, the half-maximal inhibitory concentration (IC50) amounted to 50 nM and the inhibition at 6 µM is 97%.

On to `C[C@H](NS(=O)(=O)c1ccc(-c2sc(-c3noc(C(C)(C)O)n3)nc2C(=O)N2CCC(F)CC2)c(C(F)F)c1F)C(F)(F)F` [Example 11/1, (S)-3-(Difluoromethyl)-2-fluoro-4-(4-(4-fluoropiperidine-1-carbonyl)-2-(5-(2-hydroxypropan-2-yl)-1,2,4-oxadiazol-3-yl)thiazol-5-yl)-N-(1,1,1-trifluoropropan-2-yl)benzenesulfonamide], for which the Kd in experiment [1] was 31 nM. In addition, on full-length human RORγt, the concentration for half-maximal inhibition (IC50) was found to be 120 nM and the inhibition at 6 µM stood at 103%.

Regarding `C[C@H](NS(=O)(=O)c1ccc(-c2sc(-c3noc(C(C)(C)O)n3)nc2C(=O)N2CCC(F)(F)CC2)c(C(F)F)c1F)C(F)(F)F` [Example 11/2, (S)-3-(Difluoromethyl)-4-(4-(4,4-difluoropiperidine-1-carbonyl)-2-(5-(2-hydroxypropan-2-yl)-1,2,4-oxadiazol-3-yl)thiazol-5-yl)-2-fluoro-N-(1,1,1-trifluoropropan-2-yl)benzenesulfonamide], the dissociation constant (Kd) in experiment [1] is 12 nM. For the same molecule, on full-length human RORγt, the IC50 was found to be 46 nM and the inhibition at 6 µM worked out at 108%.

For the molecule `CC[C@H](NS(=O)(=O)c1ccc(-c2sc(-c3noc(CC(C)(C)O)n3)nc2C(=O)N2CCC(F)CC2)c(C(F)F)c1F)C(F)(F)F` [Example 12, (S)-3-(Difluoromethyl)-2-fluoro-4-(4-(4-fluoropiperidine-1-carbonyl)-2-(5-(2-hydroxy-2-methylpropyl)-1,2,4-oxadiazol-3-yl)thiazol-5-yl)-N-(1,1,1-trifluorobutan-2-yl)benzenesulfonamide], the dissociation constant Kd in experiment [1] was 9.4 nM. Besides, at full-length human RORγt, the IC50 was 68 nM and the inhibition at 6 µM turned out to be 103%.

`CC[C@H](NS(=O)(=O)c1ccc(-c2sc(-c3noc(CC(C)(C)O)n3)nc2C(=O)N2CCC(F)(F)C2)c(C(F)F)c1F)C(F)(F)F` [Example 12/1, (S)-3-(Difluoromethyl)-4-(4-(3,3-difluoropyrrolidine-1-carbonyl)-2-(5-(2-hydroxy-2-methylpropyl)-1,2,4-oxadiazol-3-yl)thiazol-5-yl)-2-fluoro-N-(1,1,1-trifluorobutan-2-yl)benzenesulfonamide]: the Kd in experiment [1] is 30 nM. At full-length human RORγt, the 50% inhibitory concentration (IC50) was found to be 120 nM and the inhibition at 6 µM was determined as 102%.

Regarding `C[C@H](NS(=O)(=O)c1ccc(-c2sc(-c3cc(C(C)(C)O)on3)nc2C(=O)N2CCC(F)(F)CC2)c(Cl)c1Cl)C(F)(F)F` [Example 13, (S)-2,3-Dichloro-4-(4-(4,4-difluoropiperidine-1-carbonyl)-2-(5-(2-hydroxypropan-2-yl)isoxazol-3-yl)thiazol-5-yl)-N-(1,1,1-trifluoropropan-2-yl)benzenesulfonamide], the Kd in experiment [1] is 1.3 nM. Further, on full-length human RORγt, the IC50 was found to be 12 nM and the inhibition at 2 µM is 105%.

`C[C@H](NS(=O)(=O)c1ccc(-c2sc(-c3cc(C(C)(C)O)on3)nc2C(=O)N2CCC(F)CC2)c(Cl)c1Cl)C(F)(F)F` [Example 13/1, (S)-2,3-Dichloro-4-(4-(4-fluoropiperidine-1-carbonyl)-2-(5-(2-hydroxypropan-2-yl)isoxazol-3-yl)thiazol-5-yl)-N-(1,1,1-trifluoropropan-2-yl)benzenesulfonamide]: in experiment [1], the Kd was 4.9 nM. Moreover, on full-length human RORγt, the IC50 worked out at 21 nM and the inhibition at 2 µM turned out to be 101%.

As for `C[C@H](NS(=O)(=O)c1ccc(-c2sc(-c3noc(=O)[nH]3)nc2C(=O)N2CCC(F)CC2)c(Cl)c1Cl)C(F)(F)F` [Example 14, (S)-2,3-Dichloro-4-(4-(4-fluoropiperidine-1-carbonyl)-2-(5-oxo-4,5-dihydro-1,2,4-oxadiazol-3-yl)thiazol-5-yl)-N-(1,1,1-trifluoropropan-2-yl)benzenesulfonamide], in experiment [1], the Kd is 280 nM. For the same molecule, on full-length human RORγt, the half-inhibitory concentration (IC50) was > 2000 nM and the inhibition at 2 µM is -25%.
